Source: patent US7928098B2, “Therapeutic and/or preventive agents for a sleep disorder” (Kyowa Hakko Kirin Co., Ltd., priority 2005, dated 2011)

tested on: ddY male mice; experiment: Effect on pentobarbital sodium-induced sleeping time (loss of righting reflex); type: in vivo; conditions: Table 5-1, groups of seven, test compound 10 mg/kg p.o. one hour before pentobarbital-Na 25 mg/kg s.c., controls 52.12 ± 5.20 (r5) and 35.56 ± 5.21 (r11)
Method: The test was conducted to examine influence of Compound (I) of the present invention on pentobarbital sodium-induced sleeping time, according to the method of Iyakuhin no Kaihatsu, Vol. 9, Iyakuhin no Tansaku I, “antihypnotic”, p. 220-226, Hirokawa Shoten.
For the test, ddY male mice (19-21 g body weight; Japan SLC, Inc.) were used. All test compounds were used by suspending in distilled water (Otsuka Pharmaceutical Factory, Inc.) containing 0.5 volume/weight % methylcellulose (0.5% MC: Wako Pure Chemical Industries, Ltd.). A volume of 0.1 mL was administered per 10 g body weight of mice.
Groups of seven mice were used. To the control groups were orally administrated 0.5% MC, whereas a suspension of the test compound was orally administered to the test compound administered groups. One hour after the administration, pentobarbital sodium (pentobarbital-Na: Tokyo Chemical Industry Co., Ltd., 25 mg/kg) was administered subcutaneously. Mouse placed in a recumbent position, the mouse immediately returns to a proper upright position (this is known as righting reflex). However, the administration of pentobarbital sodium eliminated the righting reflex in the control groups. The time period in which the administration of […] eliminated the righting reflex was regarded as a sleeping time. By a measurement of time disappearing righting reflex immediately after the administration, the sleeping time was determined.

SMILES | Sleeping time (min) Mean value ± standard deviation
O=C(Nc1nc(-c2ccco2)c(-c2ccncc2)s1)c1cccnc1 [Compound 5, N-[4-(2-Furyl)-5-(4-pyridyl)thiazol-2-yl]pyridine-3-carboxamide] | 0.82 ± 0.82 min
O=C(Nc1nc(-c2ccco2)c(-c2ccncc2)s1)c1ccncc1 [Compound 1, N-[4-(2-Furyl)-5-(4-pyridyl)thiazol-2-yl]pyridine-4-carboxamide] | 15.58 ± 8.50 min
O=C(Nc1nc(-c2ccco2)c(-c2ccncc2)s1)c1ccco1 [Compound 7, N-[4-(2-Furyl)-5-(4-pyridyl)thiazol-2-yl]furan-2-carboxamide] | 6.38 ± 4.58 min
O=C(Nc1nc(-c2ccco2)c(-c2ccncc2)s1)c1ccc(Cn2ccnc2)cc1 [Compound 11, N-[4-(2-Furyl)-5-(4-pyridyl)thiazol-2-yl]-4-(imidazole-1-ylmethyl)benzamide] | 22.75 ± 6.63 min

same assay, conditions: Table 5-2, groups of seven, test compound 10 mg/kg p.o. one hour before pentobarbital-Na 25 mg/kg s.c., controls 40.00 ± 5.32 (r5) and 45.87 ± 4.17 (r12)

SMILES | Sleeping time (min) Mean value ± standard deviation
Cc1ccc(C(=O)Nc2nc(-c3ccco3)c(C(=O)C3CCOCC3)s2)cn1 [Compound 409, N-[4-(2-Furyl)-5-(tetrahydropyran-4-ylcarbonyl)thiazol-2-yl]-2-methylpyridine-5-carboxamide] | 0.05 ± 0.05 min
O=C(Nc1nc(-c2ccco2)c(C(=O)c2ccccc2)s1)c1ccncc1 [Compound 508, N-[5-Benzoyl-4-(2-furyl)thiazol-2-yl]pyridine-4-carboxamide] | 14.26 ± 4.35 min
O=C(CN1CCOCC1)Nc1nc(-c2ccco2)c(C(=O)C2CCOCC2)s1 [Compound 463, N-[4-(2-Furyl)-5-(tetrahydropyran-4-ylcarbonyl)thiazol-2-yl]-2-morpholinoacetamide] | 0.00 ± 0.00 min
O=C(Nc1nc(-c2ccco2)c(C(=O)c2ccc(F)cc2)s1)c1ccncc1 [Compound 78, N-[5-(4-Fluorobenzoyl)-4-(2-furyl)thiazol-2-yl]pyridine-4-carboxamide] | 8.66 ± 4.67 min

tested on: not given; experiment: not given; conditions: not given

SMILES | melting point
CN(C)c1cccc(C(=O)Nc2nc(-c3ccco3)c(C(=O)C3CCOCC3)s2)c1 [Compound 369, 3-(Dimethylamino)-N-[4-(2-furyl)-5-(tetrahydropyran-4-ylcarbonyl)thiazol-2-yl]benzamide] | 239 to 243 °C
CC(C)NC(=O)Nc1nc(-c2ccco2)c(C(=O)c2ccccn2)s1 [Compound 166, N-[4-(2-Furyl)-5-(pyridin-2-ylcarbonyl)thiazol-2-yl]-N′-isopropylurea] | 182 to 186 °C
CN(C)Cc1cc(C(=O)Nc2nc(-c3ccco3)c(C(=O)c3ccccc3)s2)ccn1 [Compound 49, N-[5-Benzoyl-4-(2-furyl)thiazol-2-yl]-2-(dimethylaminomethyl)pyridine-4-carboxamide] | 205 to 209 °C
CN1CCN(CC(=O)Nc2nc(-c3ccco3)c(C(=O)c3ccccn3)s2)CC1=O.Cl | 170 to 188 °C
Cc1cncc(C(=O)Nc2nc(-c3ccco3)c(C(=O)c3ccccn3)s2)c1 [Compound 131, N-[4-(2-Furyl)-5-(pyridin-2-ylcarbonyl)thiazol-2-yl]-5-methylpyridine-3-carboxamide] | 245 to 248 °C
O=C(Nc1nc(-c2ccco2)c(C(=O)c2ccn(Cc3ccccc3)c2)s1)c1ccncc1 [Compound 263, N-[5-(1-Benzylpyrrol-3-ylcarbonyl)-4-(2-furyl)thiazol-2-yl]pyridine-4-carboxamide] | 175 to 178 °C
CC(=O)c1cccc(C(=O)Nc2nc(-c3ccco3)c(C(=O)c3ccccn3)s2)c1 [Compound 115, 3-Acetyl-N-[4-(2-furyl)-5-(pyridin-2-ylcarbonyl)thiazol-2-yl]benzamide] | 168 to 169 °C
